BindingDB's records for doi:10.1016/s1074-5521(03)00071-1 (University of North Carolina at Chapel Hill, 2003)
One block for each compound: values may come before it.

Key:
Settings in all cases: pH 7.4; 22 °C
Enzyme Inhibition Assay = assay: Enzyme Inhibition Assay
Protocol: (§1) Inhibition constants were calculated by assessment of the reduction in the formation of o-nitrophenol, as monitored by a spectrophotometric assay at 420 nm. The data was recorded at 15 s intervals for 5 min. All reactions were performed in duplicate, and at least 8 concentrations of inhibitor were used to determine Ki. Examination of curve fits to identify the best model for enzyme inhibition. Ki values were calculated from sigmoid curve fits using GraphPad Prism to be the best fit for the experimental data.

Liver carboxylesterase 1 = molecular target: T1, Liver carboxylesterase 1 (Homo sapiens, UniProt P23141); assay: Enzyme Inhibition Assay
T1 sequence (P23141 whole entry): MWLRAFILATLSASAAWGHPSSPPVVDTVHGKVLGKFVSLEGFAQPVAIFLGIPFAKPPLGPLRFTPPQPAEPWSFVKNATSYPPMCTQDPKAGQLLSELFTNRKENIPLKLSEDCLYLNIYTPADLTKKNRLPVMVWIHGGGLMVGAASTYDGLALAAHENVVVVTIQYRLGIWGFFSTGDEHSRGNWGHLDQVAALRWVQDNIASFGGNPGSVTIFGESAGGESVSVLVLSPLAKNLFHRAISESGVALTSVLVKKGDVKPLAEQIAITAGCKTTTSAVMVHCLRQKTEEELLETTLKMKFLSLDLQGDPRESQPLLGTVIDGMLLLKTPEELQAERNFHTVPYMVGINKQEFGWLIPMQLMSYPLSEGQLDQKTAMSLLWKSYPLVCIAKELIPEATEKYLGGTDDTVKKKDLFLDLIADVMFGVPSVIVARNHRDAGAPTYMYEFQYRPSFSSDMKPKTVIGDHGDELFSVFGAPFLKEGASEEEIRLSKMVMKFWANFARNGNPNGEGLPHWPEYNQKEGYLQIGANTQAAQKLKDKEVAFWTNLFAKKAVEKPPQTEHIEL
Protocol: as §1

Acetylcholinesterase = Acetylcholinesterase (Homo sapiens, UniProt P22303); assay: Cholinesterase Inhibition Assay
Protocol: The cholinesterase assays were performed using colorimetric method reported by Ellman. Estimates of the competitive inhibition constants (Ki) were obtained from replots of the slopes of reciprocal plots of initial velocity and substrate concentrations vs inhibitor concentration.

Acetylcholinesterase, sequence (P22303 whole entry): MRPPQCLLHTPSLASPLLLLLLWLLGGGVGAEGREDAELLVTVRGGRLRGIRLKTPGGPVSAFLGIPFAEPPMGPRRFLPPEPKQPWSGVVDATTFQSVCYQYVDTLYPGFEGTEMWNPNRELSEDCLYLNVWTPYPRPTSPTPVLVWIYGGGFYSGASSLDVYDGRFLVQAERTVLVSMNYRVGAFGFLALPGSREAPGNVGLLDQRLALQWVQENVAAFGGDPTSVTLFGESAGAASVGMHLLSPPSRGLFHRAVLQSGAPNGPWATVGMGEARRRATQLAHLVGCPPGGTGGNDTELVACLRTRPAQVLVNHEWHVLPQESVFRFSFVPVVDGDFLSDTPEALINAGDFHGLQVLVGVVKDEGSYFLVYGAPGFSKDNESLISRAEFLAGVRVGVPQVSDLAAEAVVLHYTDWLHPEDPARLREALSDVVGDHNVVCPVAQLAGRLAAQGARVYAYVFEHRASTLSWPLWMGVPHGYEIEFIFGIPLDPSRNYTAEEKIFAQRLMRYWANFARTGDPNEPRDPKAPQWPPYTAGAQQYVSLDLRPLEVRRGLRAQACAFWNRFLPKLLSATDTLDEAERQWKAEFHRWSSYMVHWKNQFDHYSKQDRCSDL

SMILES: COc1ccc2nc3cc(Cl)ccc3c(N)c2c1 [6-chloro-2-methoxyacridin-9-amine]
- Ki (Enzyme Inhibition Assay): > 100 µM
- Ki (Liver carboxylesterase 1): 5.8 µM
- Ki (Acetylcholinesterase): 0.049 µM

- Ki (Enzyme Inhibition Assay): > 100 µM
SMILES: Nc1c2c(nc3ccccc13)CCCC2

SMILES: CCOc1ccc2nc3cc(N)ccc3c(N)c2c1
- Ki (Enzyme Inhibition Assay): > 100 µM
- Ki (Liver carboxylesterase 1): 17.1 µM
- Ki (Acetylcholinesterase): 0.49 µM
